Tests used:
[1] = biological target: PdeM (uncultured organism, UniProt S5THN5); assay: p-nitrophenol release, absorbance […] nm, Michaelis-Menten non-linear fit; type: biochemical; conditions: 2 mM MnCl2, 50 mM Tris-HCl pH 8.5, 5 mM beta-ME, 10 mM NaCl, 25 °C, 30 min
[2] = tested on: O=[N+]([O-])c1ccc(OP(=O)(O)Oc2ccc([N+](=O)[O-])cc2)cc1; assay: purified protein; type: biochemical, uncultured organism; conditions: pH 8.5; 25.0 °C

Chain of PdeM (S5THN5 entry or part of it): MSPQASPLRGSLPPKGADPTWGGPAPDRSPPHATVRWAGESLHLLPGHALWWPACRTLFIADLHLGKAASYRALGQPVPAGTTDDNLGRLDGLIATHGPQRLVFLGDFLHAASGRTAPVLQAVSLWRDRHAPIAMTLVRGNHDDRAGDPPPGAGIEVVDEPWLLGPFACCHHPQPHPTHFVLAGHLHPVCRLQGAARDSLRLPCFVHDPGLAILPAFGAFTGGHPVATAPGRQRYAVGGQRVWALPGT

Compound | Km [1] [mM] | Km [2] [mM]
O=[N+]([O-])c1ccc(OP(=O)(O)c2ccccc2)cc1 [pNPPP] | 7.2 ± 1.4 | 
PdeM (uncultured organism) |  | 10.21 ± 1.6
